Experimental data taken from PubChem BioAssay (NCI).
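How tested: cells in 96-well plates exposed to compound for 48 hours at five concentrations. GI50 is the concentration that inhibits growth by half. At the TGI there is no net growth.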

What was measured:
Assay in all cases: inhibition of tumour cell growth, NCI panel, 48 h
IGROV1 ovarian = system: IGROV1 ovarian
COLO 205 colon = system: COLO 205 colon
MDA-MB-231 breast = system: MDA-MB-231 breast
OVCAR-4 ovarian = system: OVCAR-4 ovarian
UACC-257 melanoma = system: UACC-257 melanoma
SK-OV-3 ovarian = system: SK-OV-3 ovarian
UO-31 renal = system: UO-31 renal
786-0 renal = system: 786-0 renal
OVCAR-3 ovarian = system: OVCAR-3 ovarian
MALME-3M melanoma = system: MALME-3M melanoma
SF-268 CNS = system: SF-268 CNS
T-47D breast = system: T-47D breast
LOX IMVI melanoma = system: LOX IMVI melanoma
OVCAR-8 ovarian = system: OVCAR-8 ovarian
EKVX NSCLC = system: EKVX NSCLC
SNB-75 CNS = system: SNB-75 CNS
ACHN renal = system: ACHN renal
MCF7 breast = system: MCF7 breast
HOP-92 NSCLC = system: HOP-92 NSCLC
SF-295 CNS = system: SF-295 CNS
SR leukemia = system: SR leukemia
HOP-62 NSCLC = system: HOP-62 NSCLC
HL-60(TB) leukemia = system: HL-60(TB) leukemia
MOLT-4 leukemia = system: MOLT-4 leukemia
RXF 393 renal = system: RXF 393 renal
BT-549 breast = system: BT-549 breast
HS 578T breast = system: HS 578T breast
A498 renal = system: A498 renal
HCT-116 colon = system: HCT-116 colon
PC-3 prostate = system: PC-3 prostate
UACC-62 melanoma = system: UACC-62 melanoma
OVCAR-5 ovarian = system: OVCAR-5 ovarian
RPMI-8226 leukemia = system: RPMI-8226 leukemia
CAKI-1 renal = system: CAKI-1 renal
U251 CNS = system: U251 CNS
NCI-H522 lung = system: NCI-H522 lung
NCI-H460 lung = system: NCI-H460 lung
HT29 colon = system: HT29 colon
KM12 colon = system: KM12 colon
CCRF-CEM leukemia = system: CCRF-CEM leukemia
HCC-2998 colon = system: HCC-2998 colon
SK-MEL-28 melanoma = system: SK-MEL-28 melanoma
A549 NSCLC = system: A549 NSCLC
MDA-MB-435 = system: MDA-MB-435
SK-MEL-5 melanoma = system: SK-MEL-5 melanoma
NCI-H23 lung = system: NCI-H23 lung
SW-620 colon = system: SW-620 colon
NCI/ADR-RES ovarian = system: NCI/ADR-RES ovarian
MDA-MB-468 breast = system: MDA-MB-468 breast
DU-145 prostate = system: DU-145 prostate
TK-10 renal = system: TK-10 renal
SN12C renal = system: SN12C renal
HCT-15 colon = system: HCT-15 colon
SK-MEL-2 melanoma = system: SK-MEL-2 melanoma
SNB-19 CNS = system: SNB-19 CNS
K-562 leukemia = system: K-562 leukemia
SF-539 CNS = system: SF-539 CNS
NCI-H226 lung = system: NCI-H226 lung
M14 melanoma = system: M14 melanoma

Structure (SMILES): COc1cccc(-c2nn(-c3ccccc3)cc2-c2ccnc(NCCCNC(=O)Nc3ccc(F)cc3)c2)c1
- GI50 (IGROV1 ovarian): 9.34 µM
- TGI (IGROV1 ovarian): > 37 µM
- GI50 (COLO 205 colon): 8.17 µM
- TGI (COLO 205 colon): 29.3 µM
- GI50 (MDA-MB-231 breast): 7.84 µM
- TGI (MDA-MB-231 breast): 23 µM
- GI50 (OVCAR-4 ovarian): 10.5 µM
- TGI (OVCAR-4 ovarian): > 37 µM
- GI50 (UACC-257 melanoma): 7.05 µM
- TGI (UACC-257 melanoma): 16.9 µM
- GI50 (SK-OV-3 ovarian): 10.8 µM
- TGI (SK-OV-3 ovarian): > 37 µM
- GI50 (UO-31 renal): 5.1 µM
- TGI (UO-31 renal): > 37 µM
- GI50 (786-0 renal): 9.34 µM
- TGI (786-0 renal): > 37 µM
- GI50 (OVCAR-3 ovarian): 6.18 µM
- TGI (OVCAR-3 ovarian): > 37 µM
- GI50 (MALME-3M melanoma): 5.45 µM
- TGI (MALME-3M melanoma): 10.6 µM
- GI50 (SF-268 CNS): 7.08 µM
- TGI (SF-268 CNS): 30 µM
- GI50 (T-47D breast): 7.95 µM
- TGI (T-47D breast): > 37 µM
- GI50 (LOX IMVI melanoma): 5.86 µM
- TGI (LOX IMVI melanoma): 12 µM
- GI50 (OVCAR-8 ovarian): 10.6 µM
- TGI (OVCAR-8 ovarian): > 37 µM
- GI50 (EKVX NSCLC): 9.63 µM
- TGI (EKVX NSCLC): > 37 µM
- GI50 (SNB-75 CNS): 4.18 µM
- TGI (SNB-75 CNS): 22.7 µM
- GI50 (ACHN renal): 10.6 µM
- TGI (ACHN renal): > 37 µM
- GI50 (MCF7 breast): 7.17 µM
- TGI (MCF7 breast): 18 µM
- GI50 (HOP-92 NSCLC): 6.25 µM
- TGI (HOP-92 NSCLC): 31.1 µM
- GI50 (SF-295 CNS): 7.16 µM
- TGI (SF-295 CNS): 21.7 µM
- GI50 (SR leukemia): 7.7 µM
- TGI (SR leukemia): > 37 µM
- GI50 (HOP-62 NSCLC): 14.7 µM
- TGI (HOP-62 NSCLC): > 37 µM
- GI50 (HL-60(TB) leukemia): 3.77 µM
- TGI (HL-60(TB) leukemia): 13.7 µM
- GI50 (MOLT-4 leukemia): 3.94 µM
- TGI (MOLT-4 leukemia): 19 µM
- GI50 (RXF 393 renal): 6.01 µM
- TGI (RXF 393 renal): 28.6 µM
- GI50 (BT-549 breast): 6.24 µM
- TGI (BT-549 breast): 20.3 µM
- GI50 (HS 578T breast): 6.24 µM
- TGI (HS 578T breast): 17.9 µM
- GI50 (A498 renal): 7.37 µM
- TGI (A498 renal): 31.4 µM
- GI50 (HCT-116 colon): 5.7 µM
- TGI (HCT-116 colon): 17 µM
- GI50 (PC-3 prostate): 6.23 µM
- TGI (PC-3 prostate): > 37 µM
- GI50 (UACC-62 melanoma): 7.57 µM
- TGI (UACC-62 melanoma): 24.2 µM
- GI50 (OVCAR-5 ovarian): 11.2 µM
- TGI (OVCAR-5 ovarian): > 37 µM
- GI50 (RPMI-8226 leukemia): 5.96 µM
- TGI (RPMI-8226 leukemia): 24.6 µM
- GI50 (CAKI-1 renal): 8.63 µM
- TGI (CAKI-1 renal): > 37 µM
- GI50 (U251 CNS): 9.84 µM
- TGI (U251 CNS): > 37 µM
- GI50 (NCI-H522 lung): 5.07 µM
- TGI (NCI-H522 lung): 12 µM
- GI50 (NCI-H460 lung): 6.54 µM
- TGI (NCI-H460 lung): 17.1 µM
- GI50 (HT29 colon): 7.17 µM
- TGI (HT29 colon): 18.2 µM
- GI50 (KM12 colon): 10.5 µM
- TGI (KM12 colon): > 37 µM
- GI50 (CCRF-CEM leukemia): 8.53 µM
- TGI (CCRF-CEM leukemia): 31.5 µM
- GI50 (HCC-2998 colon): 7.38 µM
- TGI (HCC-2998 colon): 20 µM
- GI50 (SK-MEL-28 melanoma): 6.57 µM
- TGI (SK-MEL-28 melanoma): 15.5 µM
- GI50 (A549 NSCLC): 9.95 µM
- TGI (A549 NSCLC): > 37 µM
- GI50 (MDA-MB-435): 5.61 µM
- TGI (MDA-MB-435): 12.8 µM
- GI50 (SK-MEL-5 melanoma): 5.64 µM
- TGI (SK-MEL-5 melanoma): 10.8 µM
- GI50 (NCI-H23 lung): 10.1 µM
- TGI (NCI-H23 lung): > 37 µM
- GI50 (SW-620 colon): 8.02 µM
- TGI (SW-620 colon): > 37 µM
- GI50 (NCI/ADR-RES ovarian): 7.29 µM
- TGI (NCI/ADR-RES ovarian): 25.4 µM
- GI50 (MDA-MB-468 breast): 4.83 µM
- TGI (MDA-MB-468 breast): 13 µM
- GI50 (DU-145 prostate): 14 µM
- TGI (DU-145 prostate): > 37 µM
- GI50 (TK-10 renal): 21.2 µM
- TGI (TK-10 renal): > 37 µM
- GI50 (SN12C renal): 9.83 µM
- TGI (SN12C renal): > 37 µM
- GI50 (HCT-15 colon): 7.64 µM
- TGI (HCT-15 colon): > 37 µM
- GI50 (SK-MEL-2 melanoma): 6.3 µM
- TGI (SK-MEL-2 melanoma): 12.6 µM
- GI50 (SNB-19 CNS): 12.1 µM
- TGI (SNB-19 CNS): > 37 µM
- GI50 (K-562 leukemia): 2.96 µM
- TGI (K-562 leukemia): > 37 µM
- GI50 (SF-539 CNS): 6.34 µM
- TGI (SF-539 CNS): 13.4 µM
- GI50 (NCI-H226 lung): 10.8 µM
- TGI (NCI-H226 lung): > 37 µM
- GI50 (M14 melanoma): 6.71 µM
- TGI (M14 melanoma): 19 µM
